The record followed here is PubChem BioAssay AID463203 (Broad Institute, 2010).

The target in the assay is Glycogen synthase kinase-3 alpha (Homo sapiens) (UniProt P49840). The assay can be described thus: concentration-response blocking of human GSK3A – biochemical, luminescence, cell-free homogeneous, retest, dose response (AID 463203). Conditions: GSK-3 alpha enzyme, ADP-Glo luminescence, 60 min.

Activity calls are given as the source filed them.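 Rule for the calls: active = more than half of replicate measurements showing over 20% loss of kinase signal relative to plate controls; inconclusive = some but at most half of replicates over 20% loss; inactive = no replicate over 20% signal loss.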 Some results are limits rather than exact numbers.

Sequence of Glycogen synthase kinase-3 alpha (Homo sapiens) (P49840 whole entry, looked up): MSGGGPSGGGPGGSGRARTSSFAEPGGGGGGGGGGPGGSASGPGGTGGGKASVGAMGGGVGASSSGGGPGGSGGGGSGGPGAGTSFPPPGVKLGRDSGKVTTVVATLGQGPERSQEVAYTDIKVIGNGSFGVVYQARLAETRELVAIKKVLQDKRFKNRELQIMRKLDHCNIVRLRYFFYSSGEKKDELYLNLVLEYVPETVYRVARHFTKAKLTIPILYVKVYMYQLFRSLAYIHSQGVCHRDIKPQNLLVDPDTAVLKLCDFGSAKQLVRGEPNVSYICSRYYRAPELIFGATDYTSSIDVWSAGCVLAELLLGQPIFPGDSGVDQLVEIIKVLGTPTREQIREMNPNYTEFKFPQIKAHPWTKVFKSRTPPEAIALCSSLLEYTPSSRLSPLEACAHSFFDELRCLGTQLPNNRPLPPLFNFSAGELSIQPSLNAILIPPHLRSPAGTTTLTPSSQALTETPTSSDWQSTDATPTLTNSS

As to `COC(=O)C1=C(C)Nc2ncnn2C1c1ccccn1` (configuration not stated), the AC50 was > 30 µM (inactive).
To `Nc1nc(N)nc(-c2cc(F)ccc2O)n1` belongs 18.9 µM; to `CC1(C)CC(=O)C(C(c2cccnc2)C2C(=O)CC(C)(C)CC2=O)C(=O)C1`, > 30 µM (inactive).
`O=C(Nc1sc2c(c1C(=O)O)CCC2)c1cccs1`: the AC50 was > 30 µM (inactive).
In the case of `COc1cc(C2CC(=O)N3CN(Cc4ccccc4)CSC3=C2C#N)ccc1OCc1ccccc1` (configuration not stated), the AC50 was > 30 µM (inactive).
With `Cc1nc(NC(=O)c2ccc(Br)o2)sc1C`, the AC50 was > 30 µM (inactive).
On to `FC(F)(F)COc1ccc(-c2nnc(SCc3c(Cl)cccc3Cl)o2)cn1`, for which the AC50 is > 30 µM (inactive).
For `Fc1ccccc1-c1n[nH]c(=S)n1/N=C/c1c[nH]c2ccccc12`, the concentration at half-maximal activity (AC50) was 22.5 µM.
The value for `Cc1ccccc1Cn1c(-c2ccc(=O)[nH]c2)nc2ccccc21` was > 30 µM (inactive); that for `O=[N+]([O-])c1ccc(NCCCN2CCOCC2)c([N+](=O)[O-])c1` was > 30 µM (inactive); that for `O=c1ccc2ccccc2o1` was > 30 µM (inactive).
To `N#Cc1c2ccc(O)cc2n2ccccc12` belongs 3.56 µM; to `COC1(OC)N=C(N)C2(C#N)C(c3ccc(C)cc3)C12C#N` (configuration not stated), > 30 µM (inactive).
To `O=C(O)c1ccc(Nc2nc(-c3ccccc3)nc3ccccc23)cc1` belongs > 30 µM (inactive); to `Cc1ccc(C2C3=C(CCCC3=O)Nc3c2c(C)nn3-c2ccccn2)o1` (configuration not stated), > 30 µM (inactive).
For `Cn1c2ccc(Cl)cc2c2nc3ccccc3nc21`, the AC50 is > 30 µM (inactive).
Regarding `Cc1ccc2c(c1)COc1c3ccc(C(=O)N4CCOCC4)cc3nn1-2`, the AC50 is > 30 µM (inactive).
As for `CC(C)OC(=O)/C(C#N)=C/c1c[nH]c2ccccc12`, the AC50 was > 30 µM (inactive).
As for `CC(=NCCCn1ccnc1)c1c(O)n(C)c(=O)n(C)c1=O`, the AC50 is > 30 µM (inactive).
`O=C(CSc1ccc2nnc(-c3ccccc3)n2n1)N1CCCc2ccccc21`: the AC50 was > 30 µM (inactive).
The value for `Cc1ccc(OCC(=O)N2CCN(c3nnc(-c4ccc(C)cc4)c4ccccc34)CC2)cc1` was > 30 µM (inactive); that for `CCC(CC)c1nnc(NC(=O)Oc2ccccc2)s1` was > 30 µM (inactive); that for `O=C(O)c1cccc2c1C(=O)c1ccc(Cl)cc1S2(=O)=O` was > 30 µM (inactive).
As for `O=C(NCc1c(F)cccc1F)c1cc(COc2c(F)cccc2F)on1`, the AC50 was > 30 µM (inactive).
Regarding `NC1=NC(=O)/C(=C\c2ccco2)S1`, the AC50 was > 30 µM (inactive).
With `COc1ccc(-c2nc(NC(=O)C3CC(=O)N(c4ccc5c(c4)OCCO5)C3)sc2C)cc1` (configuration not stated), the AC50 was > 30 µM (inactive).
To `CCCCn1c(O)c(C(C)=NCCCn2ccnc2)c(=O)[nH]c1=O` belongs 11.1 µM; to `c1ccc2c(CCNc3ncnc4nc[nH]c34)c[nH]c2c1`, 23.1 µM; to `Cc1ccc(N(C)C(=O)C2CCCN2S(=O)(=O)c2cccc3nsnc23)cc1` (configuration not stated), 29.8 µM.
As for `O=C(Cn1ncc2c(=O)oc3ccccc3c21)N1CCc2ccccc2C1`, the AC50 was > 30 µM (inactive).
To `CCSc1nc2c(c(=O)[nH]1)C(c1ccc(C)cc1)C1=C(CCCC1=O)N2` (configuration not stated) belongs > 30 µM (inactive).
The value for `COc1ccc(CNC(=O)c2cc(COc3c(F)cccc3F)on2)cc1OC` was > 30 µM (inactive); that for `COc1ccccc1C(=O)NNC(=O)c1cccc(F)c1` was > 30 µM (inactive).
As to `COC(=O)c1ccc(CSc2n[nH]c(=S)s2)o1`, the AC50 is > 30 µM (inactive).
Turning to `CCCCCCCCCCOC(=O)Cn1c(COc2ccc(Cl)cc2)[n+](C)c2ccccc21`, the AC50 was > 30 µM (inactive).
On to `Cc1ccc(S(=O)(=O)N2C(=O)/C(=C3\SC(=S)NC3=O)c3ccccc32)cc1`, for which the AC50 was > 30 µM (inactive).
Take `CN1CCc2nc3sc(C#N)c(N)c3c(-c3cccs3)c2C1`: the AC50 is 0.675 µM.
Turning to `COc1cccc(C2C(C(=O)OC(C)C)=C(C)Nc3ncnn32)c1` (configuration not stated), the AC50 is 15.2 µM.
`COC1(OC)N=C(N)C2(C#N)C(c3cccc(Oc4ccccc4)c3)C12C#N` (configuration not stated): the AC50 was > 30 µM (inactive).
The value for `CCc1ccc(N2CC(C(=O)Nc3nccs3)CC2=O)cc1` (configuration not stated) was > 30 µM (inactive); that for `COc1c(/C=C2\SC(=Nc3ccccc3Cl)NC2=O)cccc1[N+](=O)[O-]` was > 30 µM (inactive).
To `COc1ccc([N+](=O)[O-])cc1NC(=O)CCN1CCN(CCO)CC1` belongs > 30 µM (inactive).
To `COC(=O)[C@@H]1[C@H](CCc2ccccc2)NC(=O)N(Cc2ccccc2)[C@@H]1C` belongs > 30 µM (inactive); to `O=[N+]([O-])c1ccc(O)c(CN2CCCCCC2)c1`, > 30 µM (inactive); to `CCOc1cc(/C=C2\SC(N3CCCC(C)C3)=NC2=O)ccc1O` (configuration not stated), 8.87 µM.
In the case of `CCc1cccc(NC(=O)C2CCN(c3ncnc4sc(C)c(C)c34)CC2)c1`, the AC50 was > 30 µM (inactive).
As for `Cc1ccnc(NC(=O)CCC(=O)N(CC(=O)NCc2ccc(F)cc2)Cc2ccco2)c1`, the AC50 was > 30 µM (inactive).
Take `CCN(CC)CCCNc1ncnc2scc(-c3ccc(F)cc3)c12`: the AC50 is > 30 µM (inactive).
The value for `CNC(=O)CSc1nnc(-c2ccco2)n1-c1cccc(OC)c1` was > 30 µM (inactive).
Consider `COc1cccc(C(=O)O/N=C(\N)c2ccccn2)c1`, for which the half-maximal activity concentration (AC50) was 16.8 µM.
The value for `O=C1c2cccc(O)c2C(=O)c2c(O)cc(CO)cc21` was > 30 µM (inactive); that for `O=[N+]([O-])c1ccccc1-c1cc(-c2ccccc2O)n[nH]1` was > 30 µM (inactive); that for `COc1ccc(Nc2nc(Cl)c(C=O)s2)cc1` was > 30 µM (inactive).
Turning to `Cc1ccc(OCc2nnnn2-c2ccccc2)cc1`, the AC50 is > 30 µM (inactive).
To `CS(=O)(=O)N1CCN(c2ccccc2NC(=O)c2ccc(Br)o2)CC1` belongs 1.94 µM; to `CC(C)c1c(C(=O)N/N=C/c2ccsc2)nnn1-c1nonc1N`, > 30 µM (inactive); to `O=C1/C(=C/c2ccc3c(c2)OCO3)Oc2cc(OCC(=O)N3CCC[C@H]3C(=O)O)ccc21`, 4.35 µM.
To `Cc1ccnc(NC(=O)CCC(=O)N(CC(=O)NCc2ccccc2)Cc2ccc(F)cc2)c1` belongs 25 µM; to `O=C(Cn1c(NCCO)nc2ccccc21)c1ccc([N+](=O)[O-])cc1`, > 30 µM (inactive); to `COc1ccc2nc(SCC(=O)Nc3nccs3)[nH]c2c1`, 7.82 µM.
As to `O=[N+]([O-])c1c(NCCCO)cc(Sc2nc3ccccc3s2)c2nonc12`, the AC50 was > 30 µM (inactive).
On to `CC(C)Cn1nc(NC(=O)C2CCCO2)c2cc3ccccc3nc21` (configuration not stated), for which the AC50 is > 30 µM (inactive).
Regarding `Cc1onc(-c2c(F)cccc2Cl)c1C(=O)OCC(=O)Nc1c(C)n(C)n(-c2ccccc2)c1=O`, the AC50 is > 30 µM (inactive).
To `c1ccc2c3c([nH]c2c1)-c1[nH]ncc1CC3` belongs 25.1 µM; to `CN(C(=O)/C=C/c1ccc2c(c1)OCO2)c1ccccc1`, 6.73 µM; to `Fc1ccc(/C=N/Nc2nc3ccccc3[nH]2)cc1F`, > 30 µM (inactive).
Take `O=C(Nc1ccccc1-c1nnc(SCc2ccc(Cl)cc2)o1)c1ccccc1`: the AC50 is > 30 µM (inactive).
For `COc1ccc(OCc2nc(N)nc(Nc3ccccc3OC)n2)cc1`, the AC50 was > 30 µM (inactive).
To `CCC(Oc1ccccc1)C(=O)N(C)CC(=O)N(CC(C)C)c1c(N)n(CC(C)C)c(=O)[nH]c1=O` (configuration not stated) belongs > 30 µM (inactive); to `COc1ccc(C2=Nn3c(nnc3-c3ccncc3)SC2)cc1`, 5.49 µM; to `CCn1c(SCc2nc3sc(C(=O)O)c(C)c3c(=O)[nH]2)nc2ccccc21`, 10.8 µM.
The value for `O=C(Nc1ccc(Cl)cn1)c1cccc(S(=O)(=O)N2CCOCC2)c1` was > 30 µM (inactive); that for `CNc1ccc(/C=C/C(=O)c2ccc3c(c2)OCCO3)cc1[N+](=O)[O-]` was > 30 µM (inactive); that for `NNC(=O)CCCCCCCCCCOCCCCO` was > 30 µM (inactive).
The value for `CC(C)CNc1cc(N2CCCC2)ccc1[N+](=O)[O-]` was > 30 µM (inactive); that for `COc1ccc2c3c(cccc13)OC2=O` was > 30 µM (inactive); that for `Cc1cc2oc(C(=O)NCCc3ccc(S(N)(=O)=O)cc3)c(C)c2cc1C` was > 30 µM (inactive).
As for `CSc1nc2n(n1)C(c1ccccn1)C1=C(CC(C)(C)CC1=O)N2` (configuration not stated), the AC50 is > 30 µM (inactive).
As for `CCC(C)[C@H](NC(=O)Nc1ccc(S(N)(=O)=O)cc1)C(=O)O` (some centres not stated), the AC50 is > 30 µM (inactive).
As for `COc1ccc2[nH]c(C)c(CN3CCCCC3)c(=O)c2c1`, the AC50 is > 30 µM (inactive).
Turning to `Cc1ccc(-c2nnc(N3CCN(C(=O)COc4cccc(C)c4)CC3)c3ccccc23)cc1`, the AC50 was > 30 µM (inactive).
For the compound `Cc1cc(C)nc(NC(=O)c2ccc(Br)s2)n1`, the AC50 was > 30 µM (inactive).
Take `Fc1ccc(/C=N/Nc2nccnc2Cl)cc1`: the AC50 is > 30 µM (inactive).
Turning to `CC(C)c1[nH]nc2c1C(c1ccco1)C(C#N)=C(N)O2` (configuration not stated), the AC50 is > 30 µM (inactive).
Regarding `c1ccc(-c2noc(-c3ccc4c(c3)OCO4)n2)cc1`, the AC50 was > 30 µM (inactive).
To `O=C(NCC1CCN(Cc2ccccc2Cl)CC1)Nc1ccccc1F` belongs > 30 µM (inactive).
For `CC(C)(C)NCC(O)COc1ccccc1C(C)(C)C` (configuration not stated), the AC50 was > 30 µM (inactive).
To `COc1c2ccccc2nc2ccccc12` belongs > 30 µM (inactive).
The value for `O=Cc1cn(-c2ccccc2)nc1-c1cccnc1` was > 30 µM (inactive); that for `CCOc1nc(NCCN2CCOCC2)nc(Nc2ccc([N+](=O)[O-])cc2)n1` was > 30 µM (inactive).
The value for `N#Cc1c(-c2ccccc2)nc(SCc2ccc(Cl)cc2)[nH]c1=O` was > 30 µM (inactive); that for `Fc1ccc(C2=Nn3c(nnc3-c3ccco3)SC2)cc1` was > 30 µM (inactive).
